According to ChEMBL document CHEMBL4507267 (2021):

Experiments:
[1] = molecular target: Muscle, skeletal receptor tyrosine-protein kinase (Homo sapiens) (UniProt O15146); details: Compound concentration 1000.0 nM
[2] = molecular target: Mitogen-activated protein kinase kinase kinase 14 (Homo sapiens) (UniProt Q99558); details: Compound concentration 1000.0 nM
[3] = molecular target: BDNF/NT-3 growth factors receptor (Homo sapiens) (UniProt Q16620); details: Compound concentration 1000.0 nM
[4] = molecular target: Cyclin-dependent kinase 5 (Homo sapiens) (UniProt Q00535); details: Compound concentration 1000.0 nM
[5] = test system: Proto-oncogene tyrosine-protein kinase receptor Ret (Homo sapiens), P07949 [M918T]; details: Compound concentration 1000.0 nM
[6] = molecular target: Serine/threonine-protein kinase/endoribonuclease IRE1 (Homo sapiens) (UniProt O75460); details: Compound concentration 1000.0 nM
[7] = molecular target: Casein kinase I isoform alpha (Homo sapiens) (UniProt P48729); details: Compound concentration 1000.0 nM
[8] = molecular target: RAC-beta serine/threonine-protein kinase (Homo sapiens) (UniProt P31751); details: Compound concentration 1000.0 nM
[9] = molecular target: MAP kinase-interacting serine/threonine-protein kinase 2 (Homo sapiens) (UniProt Q9HBH9); details: Compound concentration 1000.0 nM
[10] = test system: Proto-oncogene tyrosine-protein kinase receptor Ret (Homo sapiens), P07949 [V804M]; details: Compound concentration 1000.0 nM
[11] = molecular target: Histamine H4 receptor (Homo sapiens) (UniProt Q9H3N8); details: Compound concentration 10.0 uM
[12] = molecular target: Dual specificity testis-specific protein kinase 1 (Homo sapiens) (UniProt Q15569); details: Compound concentration 1000.0 nM
[13] = molecular target: 5-hydroxytryptamine receptor 1B (Homo sapiens) (UniProt P28222); details: Compound concentration 10.0 uM
[14] = molecular target: Mitogen-activated protein kinase kinase kinase 10 (Homo sapiens) (UniProt Q02779); details: Compound concentration 1000.0 nM
[15] = test system: Tyrosine-protein kinase ABL1 (Homo sapiens), P00519 [F317I]; details: Compound concentration 1000.0 nM
[16] = molecular target: Myosin-IIIb (Homo sapiens) (UniProt Q8WXR4); details: Compound concentration 1000.0 nM
[17] = molecular target: Serine/threonine-protein kinase MRCK alpha (Homo sapiens) (UniProt Q5VT25); details: Compound concentration 1000.0 nM
[18] = test system: Epidermal growth factor receptor (Homo sapiens), P00533 [UNDEFINED MUTATION]; details: Compound concentration 1000.0 nM
[19] = molecular target: Activin receptor type-1B (Homo sapiens) (UniProt P36896); details: Compound concentration 1000.0 nM
[20] = molecular target: Phosphatidylinositol 4-phosphate 5-kinase type-1 gamma (Homo sapiens) (UniProt O60331); details: Compound concentration 1000.0 nM
[21] = molecular target: Ephrin type-A receptor 2 (Homo sapiens) (UniProt P29317); details: Compound concentration 1000.0 nM
[22] = molecular target: NT-3 growth factor receptor (Homo sapiens) (UniProt Q16288); details: Compound concentration 1000.0 nM
[23] = molecular target: NUAK family SNF1-like kinase 1 (Homo sapiens) (UniProt O60285); details: Compound concentration 1000.0 nM
[24] = molecular target: Mitogen-activated protein kinase 11 (Homo sapiens) (UniProt Q15759); details: Compound concentration 1000.0 nM
[25] = molecular target: LIM domain kinase 1 (Homo sapiens) (UniProt P53667); details: Compound concentration 1000.0 nM
[26] = molecular target: Tyrosine-protein kinase Srms (Homo sapiens) (UniProt Q9H3Y6); details: Compound concentration 1000.0 nM
[27] = molecular target: 5-hydroxytryptamine receptor 3A (Homo sapiens) (UniProt P46098); details: Compound concentration 10.0 uM
[28] = molecular target: Serine/threonine-protein kinase pim-2 (Homo sapiens) (UniProt Q9P1W9); details: Compound concentration 1000.0 nM
[29] = molecular target: Serine/threonine-protein kinase N2 (Homo sapiens) (UniProt Q16513); details: Compound concentration 1000.0 nM
[30] = test system: Tyrosine-protein kinase ABL1 (Homo sapiens), P00519 [T315I]; details: Compound concentration 1000.0 nM
[31] = molecular target: Proto-oncogene tyrosine-protein kinase receptor Ret (Homo sapiens) (UniProt P07949); details: Compound concentration 1000.0 nM
[32] = molecular target: Vascular endothelial growth factor receptor 3 (Homo sapiens) (UniProt P35916); details: Compound concentration 1000.0 nM
[33] = molecular target: Serine/threonine-protein kinase pim-1 (Homo sapiens) (UniProt P11309); details: Compound concentration 1000.0 nM
[34] = molecular target: Tyrosine-protein kinase JAK3 (Homo sapiens) (UniProt P52333); details: Compound concentration 1000.0 nM
[35] = test system: Mast/stem cell growth factor receptor Kit (Homo sapiens), P10721 [V559D,T670I]; details: Compound concentration 1000.0 nM
[36] = molecular target: Serine/threonine-protein kinase 26 (Homo sapiens) (UniProt Q9P289); details: Compound concentration 1000.0 nM
[37] = molecular target: STE20-like serine/threonine-protein kinase (Homo sapiens) (UniProt Q9H2G2); details: Compound concentration 1000.0 nM
[38] = molecular target: Non-receptor tyrosine-protein kinase TNK1 (Homo sapiens) (UniProt Q13470); details: Compound concentration 1000.0 nM
[39] = molecular target: Serine/threonine-protein kinase TAO3 (Homo sapiens) (UniProt Q9H2K8); details: Compound concentration 1000.0 nM
[40] = molecular target: Mitogen-activated protein kinase kinase kinase kinase 5 (Homo sapiens) (UniProt Q9Y4K4); details: Compound concentration 1000.0 nM
[41] = molecular target: cAMP-dependent protein kinase catalytic subunit PRKX (Homo sapiens) (UniProt P51817); details: Compound concentration 1000.0 nM
[42] = molecular target: TGF-beta receptor type-1 (Homo sapiens) (UniProt P36897); details: Compound concentration 1000.0 nM
[43] = molecular target: Serine/threonine-protein kinase 36 (Homo sapiens) (UniProt Q9NRP7); details: Compound concentration 1000.0 nM
[44] = molecular target: Protein kinase C theta type (Homo sapiens) (UniProt Q04759); details: Compound concentration 1000.0 nM
[45] = molecular target: Serine/threonine-protein kinase PAK 1 (Homo sapiens) (UniProt Q13153); details: Compound concentration 1000.0 nM

Cyclin-dependent kinase 5 (Homo sapiens), sequence (Q00535 whole entry, looked up): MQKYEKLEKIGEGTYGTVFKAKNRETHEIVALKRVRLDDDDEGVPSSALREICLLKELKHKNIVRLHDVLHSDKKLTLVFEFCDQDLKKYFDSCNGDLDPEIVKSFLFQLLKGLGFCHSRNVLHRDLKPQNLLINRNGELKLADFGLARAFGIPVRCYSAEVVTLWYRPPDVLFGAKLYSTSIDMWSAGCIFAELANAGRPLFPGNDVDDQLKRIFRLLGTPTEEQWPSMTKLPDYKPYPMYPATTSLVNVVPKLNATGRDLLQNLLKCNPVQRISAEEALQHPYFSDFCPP
RAC-beta serine/threonine-protein kinase (Homo sapiens), sequence (P31751 whole entry): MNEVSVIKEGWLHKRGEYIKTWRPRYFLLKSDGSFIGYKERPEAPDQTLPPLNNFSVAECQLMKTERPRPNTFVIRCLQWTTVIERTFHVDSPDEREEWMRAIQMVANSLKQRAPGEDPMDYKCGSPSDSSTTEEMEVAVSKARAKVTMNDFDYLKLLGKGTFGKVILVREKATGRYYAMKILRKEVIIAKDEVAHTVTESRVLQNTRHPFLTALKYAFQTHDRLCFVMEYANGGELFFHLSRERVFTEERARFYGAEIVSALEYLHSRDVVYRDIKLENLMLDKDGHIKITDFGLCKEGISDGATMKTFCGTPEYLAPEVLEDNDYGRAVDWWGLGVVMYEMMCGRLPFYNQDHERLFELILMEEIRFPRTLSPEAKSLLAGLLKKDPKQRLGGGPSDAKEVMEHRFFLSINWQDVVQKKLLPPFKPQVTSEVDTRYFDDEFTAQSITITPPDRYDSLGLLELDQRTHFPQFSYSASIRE
cAMP-dependent protein kinase catalytic subunit PRKX (Homo sapiens), sequence (P51817 whole entry): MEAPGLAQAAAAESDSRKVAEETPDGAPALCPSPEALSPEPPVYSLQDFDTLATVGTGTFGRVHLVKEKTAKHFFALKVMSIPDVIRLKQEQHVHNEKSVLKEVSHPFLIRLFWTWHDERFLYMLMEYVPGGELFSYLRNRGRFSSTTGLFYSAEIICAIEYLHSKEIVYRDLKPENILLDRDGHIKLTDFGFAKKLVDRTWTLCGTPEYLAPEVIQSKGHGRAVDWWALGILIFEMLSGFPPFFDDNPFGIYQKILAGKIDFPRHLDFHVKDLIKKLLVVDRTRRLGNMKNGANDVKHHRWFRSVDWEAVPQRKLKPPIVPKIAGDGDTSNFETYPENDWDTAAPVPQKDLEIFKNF
Myosin-IIIb (Homo sapiens), sequence (Q8WXR4 whole entry): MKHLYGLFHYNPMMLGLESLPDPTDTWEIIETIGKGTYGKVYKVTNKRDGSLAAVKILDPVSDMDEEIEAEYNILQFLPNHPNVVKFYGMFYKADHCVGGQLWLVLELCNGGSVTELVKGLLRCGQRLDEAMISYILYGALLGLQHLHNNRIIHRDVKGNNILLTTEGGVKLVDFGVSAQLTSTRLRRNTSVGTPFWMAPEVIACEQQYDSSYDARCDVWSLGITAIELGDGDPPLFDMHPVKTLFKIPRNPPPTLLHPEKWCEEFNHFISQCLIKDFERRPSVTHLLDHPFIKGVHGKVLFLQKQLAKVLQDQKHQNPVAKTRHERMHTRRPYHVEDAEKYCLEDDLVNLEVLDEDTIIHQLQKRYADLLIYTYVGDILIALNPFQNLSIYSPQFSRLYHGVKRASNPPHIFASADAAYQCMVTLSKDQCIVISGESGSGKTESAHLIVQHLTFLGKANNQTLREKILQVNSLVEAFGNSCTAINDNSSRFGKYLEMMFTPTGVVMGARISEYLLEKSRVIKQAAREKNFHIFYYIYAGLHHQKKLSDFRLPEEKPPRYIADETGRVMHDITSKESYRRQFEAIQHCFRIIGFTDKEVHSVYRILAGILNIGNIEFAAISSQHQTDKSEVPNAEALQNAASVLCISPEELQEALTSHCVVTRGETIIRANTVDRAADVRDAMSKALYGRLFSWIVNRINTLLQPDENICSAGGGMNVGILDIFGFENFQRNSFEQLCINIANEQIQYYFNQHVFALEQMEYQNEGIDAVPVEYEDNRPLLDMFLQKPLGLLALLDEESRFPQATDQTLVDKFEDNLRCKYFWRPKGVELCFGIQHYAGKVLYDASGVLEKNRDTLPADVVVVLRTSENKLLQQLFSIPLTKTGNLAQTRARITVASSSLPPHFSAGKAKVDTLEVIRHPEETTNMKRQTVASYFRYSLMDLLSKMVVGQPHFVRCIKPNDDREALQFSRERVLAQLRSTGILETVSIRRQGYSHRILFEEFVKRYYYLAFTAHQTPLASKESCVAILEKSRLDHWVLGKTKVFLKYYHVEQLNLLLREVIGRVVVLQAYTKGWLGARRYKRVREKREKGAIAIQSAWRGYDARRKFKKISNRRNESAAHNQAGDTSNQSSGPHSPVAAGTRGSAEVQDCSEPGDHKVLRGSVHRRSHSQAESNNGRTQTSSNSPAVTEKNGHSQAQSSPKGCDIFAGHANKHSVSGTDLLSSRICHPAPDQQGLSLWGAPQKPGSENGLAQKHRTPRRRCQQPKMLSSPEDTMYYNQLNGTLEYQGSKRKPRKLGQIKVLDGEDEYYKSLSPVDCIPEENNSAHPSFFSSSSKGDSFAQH
Serine/threonine-protein kinase pim-2 (Homo sapiens), sequence (Q9P1W9 whole entry, looked up): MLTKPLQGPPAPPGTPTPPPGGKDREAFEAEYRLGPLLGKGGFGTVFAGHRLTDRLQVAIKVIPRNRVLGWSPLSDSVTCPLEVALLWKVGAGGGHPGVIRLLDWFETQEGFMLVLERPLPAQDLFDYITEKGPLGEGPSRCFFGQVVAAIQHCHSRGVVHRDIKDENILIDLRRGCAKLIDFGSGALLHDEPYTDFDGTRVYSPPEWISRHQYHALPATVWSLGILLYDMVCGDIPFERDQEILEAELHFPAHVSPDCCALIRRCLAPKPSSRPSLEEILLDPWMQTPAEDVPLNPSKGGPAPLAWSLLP
Mitogen-activated protein kinase kinase kinase 10 (Homo sapiens), sequence (Q02779 whole entry, looked up): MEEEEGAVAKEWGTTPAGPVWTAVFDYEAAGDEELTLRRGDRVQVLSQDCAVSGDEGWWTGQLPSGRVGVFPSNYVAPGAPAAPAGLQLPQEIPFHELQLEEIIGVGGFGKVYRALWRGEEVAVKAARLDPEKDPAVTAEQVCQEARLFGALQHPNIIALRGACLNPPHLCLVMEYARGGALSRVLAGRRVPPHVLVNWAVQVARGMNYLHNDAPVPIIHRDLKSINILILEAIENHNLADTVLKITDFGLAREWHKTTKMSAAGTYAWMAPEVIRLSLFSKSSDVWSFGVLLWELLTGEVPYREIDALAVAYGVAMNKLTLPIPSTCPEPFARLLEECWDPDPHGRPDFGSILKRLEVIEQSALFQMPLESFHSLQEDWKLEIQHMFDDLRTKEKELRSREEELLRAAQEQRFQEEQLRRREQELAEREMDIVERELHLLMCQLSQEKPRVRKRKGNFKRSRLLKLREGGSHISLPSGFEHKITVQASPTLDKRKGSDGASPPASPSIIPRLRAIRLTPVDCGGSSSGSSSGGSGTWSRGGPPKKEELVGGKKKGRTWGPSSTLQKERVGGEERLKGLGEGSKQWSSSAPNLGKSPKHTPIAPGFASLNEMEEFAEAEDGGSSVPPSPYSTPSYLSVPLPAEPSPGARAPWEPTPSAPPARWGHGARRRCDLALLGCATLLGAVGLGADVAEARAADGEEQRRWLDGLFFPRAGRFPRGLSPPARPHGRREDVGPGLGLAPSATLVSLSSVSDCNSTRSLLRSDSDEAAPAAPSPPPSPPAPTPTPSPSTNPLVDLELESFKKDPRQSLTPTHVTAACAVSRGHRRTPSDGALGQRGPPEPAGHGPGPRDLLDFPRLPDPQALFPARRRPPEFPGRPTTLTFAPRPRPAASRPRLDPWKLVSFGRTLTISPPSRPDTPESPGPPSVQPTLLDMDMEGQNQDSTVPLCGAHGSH
NT-3 growth factor receptor (Homo sapiens), sequence (Q16288 32-839 limits assumed): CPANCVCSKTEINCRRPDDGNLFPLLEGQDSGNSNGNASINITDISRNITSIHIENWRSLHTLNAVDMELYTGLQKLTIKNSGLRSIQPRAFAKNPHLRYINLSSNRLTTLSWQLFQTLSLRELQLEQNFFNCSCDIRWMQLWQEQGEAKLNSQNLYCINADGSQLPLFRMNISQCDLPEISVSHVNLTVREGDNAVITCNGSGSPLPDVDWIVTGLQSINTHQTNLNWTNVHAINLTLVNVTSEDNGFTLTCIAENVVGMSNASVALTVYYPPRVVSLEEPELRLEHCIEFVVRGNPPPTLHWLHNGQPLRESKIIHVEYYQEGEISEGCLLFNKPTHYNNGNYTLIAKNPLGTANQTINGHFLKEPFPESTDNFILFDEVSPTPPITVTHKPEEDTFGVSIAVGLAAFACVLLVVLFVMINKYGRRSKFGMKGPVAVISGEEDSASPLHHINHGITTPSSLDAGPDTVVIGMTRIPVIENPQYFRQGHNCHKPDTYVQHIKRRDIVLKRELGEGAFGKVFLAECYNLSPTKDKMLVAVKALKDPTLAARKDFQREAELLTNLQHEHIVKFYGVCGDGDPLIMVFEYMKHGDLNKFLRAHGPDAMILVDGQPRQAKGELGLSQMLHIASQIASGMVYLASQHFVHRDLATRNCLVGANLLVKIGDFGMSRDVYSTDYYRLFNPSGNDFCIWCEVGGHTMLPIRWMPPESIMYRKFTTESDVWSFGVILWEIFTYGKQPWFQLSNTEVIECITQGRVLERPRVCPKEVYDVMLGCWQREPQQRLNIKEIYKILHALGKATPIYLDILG
Histamine H4 receptor (Homo sapiens), sequence (Q9H3N8 whole entry): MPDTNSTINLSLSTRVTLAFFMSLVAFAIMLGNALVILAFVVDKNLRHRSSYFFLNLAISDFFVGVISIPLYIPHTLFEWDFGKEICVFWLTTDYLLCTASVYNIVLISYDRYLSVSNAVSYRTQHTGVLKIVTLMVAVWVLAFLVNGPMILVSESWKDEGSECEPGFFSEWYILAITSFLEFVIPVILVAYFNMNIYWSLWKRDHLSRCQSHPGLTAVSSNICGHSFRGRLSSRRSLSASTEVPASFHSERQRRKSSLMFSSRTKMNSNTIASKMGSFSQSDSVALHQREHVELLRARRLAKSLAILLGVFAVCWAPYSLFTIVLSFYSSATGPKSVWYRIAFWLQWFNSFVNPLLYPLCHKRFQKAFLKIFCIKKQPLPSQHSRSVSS

SMILES: Cc1c(NC(=O)c2cc(C(N)=O)nc3cc(F)ccc23)c(C(F)(F)F)nn1Cc1ccc(C(C)(C)C)cc1 [BAY-588]
- residual activity [1]: 97%
- residual activity [2]: 100%
- residual activity [3]: 100%
- residual activity [4]: 76%
- residual activity [5]: 96%
- residual activity [6]: 89%
- residual activity [7]: 94%
- residual activity [8]: 98%
- residual activity [9]: 100%
- residual activity [10]: 100%
- inhibition [11]: 13%
- residual activity [12]: 100%
- inhibition [13]: -7.67%
- residual activity [14]: 78%
- residual activity [15]: 100%
- residual activity [16]: 100%
- residual activity [17]: 100%
- residual activity [18]: 96%
- residual activity [19]: 80%
- residual activity [20]: 78%
- residual activity [21]: 97%
- residual activity [22]: 100%
- residual activity [23]: 94%
- residual activity [24]: 91%
- residual activity [25]: 100%
- residual activity [26]: 100%
- inhibition [27]: 7.59%
- residual activity [28]: 100%
- residual activity [29]: 100%
- residual activity [30]: 85%
- residual activity [31]: 100%
- residual activity [32]: 91%
- residual activity [33]: 100%
- residual activity [34]: 100%
- residual activity [35]: 100%
- residual activity [36]: 100%
- residual activity [37]: 100%
- residual activity [38]: 100%
- residual activity [39]: 45%
- residual activity [40]: 92%
- residual activity [41]: 94%
- residual activity [42]: 91%
- residual activity [43]: 97%
- residual activity [44]: 91%
- residual activity [45]: 98%

SMILES: Cc1c(NC(=O)c2cc(C(N)=O)nc3cc(F)ccc23)c(C(F)(F)F)nn1Cc1ccc(C#N)cc1 [BAY-876]
- residual activity [1]: 95%
- residual activity [2]: 72%
- residual activity [3]: 54%
- residual activity [4]: 100%
- residual activity [5]: 96%
- residual activity [6]: 78%
- residual activity [7]: 72%
- residual activity [8]: 98%
- residual activity [9]: 92%
- residual activity [10]: 100%
- inhibition [11]: 29%
- residual activity [12]: 93%
- inhibition [13]: 2.6%
- residual activity [14]: 92%
- residual activity [15]: 96%
- residual activity [16]: 100%
- residual activity [17]: 97%
- residual activity [18]: 61%
- residual activity [19]: 80%
- residual activity [20]: 94%
- residual activity [21]: 81%
- residual activity [22]: 69%
- residual activity [23]: 100%
- residual activity [24]: 88%
- residual activity [25]: 78%
- residual activity [26]: 62%
- inhibition [27]: -7.03%
- residual activity [28]: 94%
- residual activity [29]: 81%
- residual activity [30]: 92%
- residual activity [31]: 94%
- residual activity [32]: 100%
- residual activity [33]: 86%
- residual activity [34]: 90%
- residual activity [35]: 89%
- residual activity [36]: 95%
- residual activity [37]: 100%
- residual activity [38]: 81%
- residual activity [39]: 79%
- residual activity [40]: 74%
- residual activity [41]: 92%
- residual activity [42]: 80%
- residual activity [43]: 100%
- residual activity [44]: 80%
- residual activity [45]: 100%
